Assays:
Pgk1 = biological target: T1, Pgk1 (Homo sapiens, UniProt P00558); assay: Affinity for Pgk1 protein (Biacore T200); format: binding; conditions: drug alone; amount of small-molecule drug bound
T1 sequence (P00558 1-417): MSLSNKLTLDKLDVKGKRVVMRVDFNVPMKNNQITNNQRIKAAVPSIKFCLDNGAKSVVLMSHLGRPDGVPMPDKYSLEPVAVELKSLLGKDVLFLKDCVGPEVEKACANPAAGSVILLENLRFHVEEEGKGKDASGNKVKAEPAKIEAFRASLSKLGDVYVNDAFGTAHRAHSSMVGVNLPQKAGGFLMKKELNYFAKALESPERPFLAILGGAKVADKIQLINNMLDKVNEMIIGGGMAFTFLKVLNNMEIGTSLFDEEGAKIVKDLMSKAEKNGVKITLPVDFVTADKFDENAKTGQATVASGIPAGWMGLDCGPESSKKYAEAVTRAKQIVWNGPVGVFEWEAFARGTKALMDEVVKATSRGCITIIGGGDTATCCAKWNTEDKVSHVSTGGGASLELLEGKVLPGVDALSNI
Method: Example 30: Determination of Affinities of Compounds for Pgk1 Protein
Purified Pgk1 protein (with a concentration of 1 mg/mL) was immobilized on a Biacore T200 chip. […] The obtained curves can calculate parameters such as affinity and Rmax.

patients = conditions: cited from earlier work
glucose metabolism = conditions: human, in vivo; cited from earlier work

With `Nc1ncnc2c1ncn2[C@@H]1O[C@H](COP(=O)(O)OP(=O)(O)O)[C@@H](O)[C@H]1O` [ADP, reference compound] the Rmax (Pgk1) was 35 RU.
Molecule `Nc1nc(N2CCN(C(=O)[C@H]3CCCO3)CC2)cc2cc3c(cc12)OCO3` [Compound T1] has an Rmax (Pgk1) of 116 RU.
Molecule `CC1Oc2cc3cc(N4CCN(C(=O)[C@H]5CCCO5)CC4)nc(N)c3cc2O1` (stereo partly shown) [Compound T3] has an Rmax (Pgk1) of 93 RU.
In the case of `CC1(C)Oc2cc3cc(N4CCN(C(=O)[C@H]5CCCO5)CC4)nc(N)c3cc2O1` [Compound T4], the Rmax (Pgk1) is reported as 75 RU.
In the case of `Nc1nc(N2CCN(C(=O)[C@H]3CCCO3)CC2)cc2cc3c(cc12)CCO3` [Compound T5], the Rmax (Pgk1) is reported as 86 RU.
Molecule `Nc1nc(N2CCN(C(=O)C3CCCC3)CC2)cc2cc3c(cc12)OCO3` [Compound T7] has an Rmax (Pgk1) of 159 RU.
For `Nc1nc(N2CCN(C(=O)[C@H]3CCCN3)CC2)cc2cc3c(cc12)OCO3` [Compound T8], the Rmax (Pgk1) was 87 RU.
`Nc1nc(N2CCN(C(=O)[C@@H]3CCCN3)CC2)cc2cc3c(cc12)OCO3` [Compound T9] showed an Rmax (Pgk1) of 87 RU.
For `COc1cc2nc(N(C)CCCNC(=O)C3CCCO3)nc(N)c2cc1OC` (stereo not shown) [alfuzosin], the Side effects (patients) is given as “intraoperative floppy iris syndrome (IFIS), hypotension, fatigue, dizziness, syncope, and blurred vision”.
In the case of `COC1=C(OC)C(=O)C(C/C=C(\C)CC/C=C(\C)CC/C=C(\C)CC/C=C(\C)CC/C=C(\C)CC/C=C(\C)CC/C=C(\C)CC/C=C(\C)CC/C=C(\C)CCC=C(C)C)=C(C)C1=O` [coenzyme Q10], the “Clinical efficacy on glucose metabolism” value (glucose metabolism) is listed as “either no effect or clinical efficacy in only a small subset of the population”.
In the case of `CN(CC(=O)O)C(=N)N` [creatine], the “Clinical efficacy on glucose metabolism” value (glucose metabolism) is listed as “either no effect or clinical efficacy in only a small subset of the population”.
For `CN(C)C(=N)N=C(N)N` [metformin, reference compound], the “Clinical efficacy on glucose metabolism” value (glucose metabolism) is given as “either no effect or clinical efficacy in only a small subset of the population”.
For `CO[C@H]1C[C@@H]2CC[C@@H](C)[C@@](O)(O2)C(=O)C(=O)N2CCCC[C@H]2C(=O)O[C@H]([C@H](C)C[C@@H]2CC[C@@H](O)[C@H](OC)C2)CC(=O)[C@H](C)/C=C(\C)[C@@H](O)[C@@H](OC)C(=O)[C@H](C)C[C@H](C)/C=C/C=C/C=C/1C` [rapamycin, reference compound], the “Clinical efficacy on glucose metabolism” value (glucose metabolism) is given as “either no effect or clinical efficacy in only a small subset of the population”.
In the case of `Oc1ccc(C=Cc2cc(O)cc(O)c2)cc1` [resveratrol, reference compound], the “Clinical efficacy on glucose metabolism” value (glucose metabolism) is listed as “either no effect or clinical efficacy in only a small subset of the population”.
For `O=C(O)c1cccnc1` [vitamin B3], the “Clinical efficacy on glucose metabolism” value (glucose metabolism) is listed as “either no effect or clinical efficacy in only a small subset of the population”.
In the case of insulin, the “Clinical efficacy on glucose metabolism” value (glucose metabolism) is listed as “either no effect or clinical efficacy in only a small subset of the population”.

— patent US20260355182A1, “ISOQUINOLINE DERIVATIVE, SYNTHESIS METHOD THEREFOR, AND USE THEREOF” (Harbin Gloria Pharmaceuticals Co., Ltd., priority 2023, published 2026)
